According to US6656509B1, “Combination of selenium-containing compounds with cytostatics” (Biosyn Arzneimittel GmbH, priority 1998, dated 2003):
Like-named read-outs stand apart in the source and are kept apart here.

How the values were obtained:
LXFL 529 = experiment: clonogenic assay (colony forming assay); type: cell-based, human; details: LXFL 529/18, X182AM
Method: (§1) Solid human tumor xenografts growing subcutaneously in serial passages in thymus-aplastic nude mice (NMRI nu/nu strain, obtained from our own breeding facility) were removed under sterile conditions, the cells were mechanically disaggregated and subsequently incubated with an enzyme cocktail consisting of collagenase (1.2-1.8 U/ml, Worthington), DNAse (375 U/ml, Boehringer Mannheim) und hyaluronidase (29 U/ml, Boehringer Mannheim) in RPMI 1640 at 37° C. for 30 minutes. The cell mixture was passed through sieves of 200 μm and 50 μm mesh size and washed thereafter twice with PBS. The percentage of viable cells was determined in a Neubauer counting chamber using trypan blue exclusion.
(§2) The clonogenic assay was performed according to a modified two-layer soft agar assay described by Hamburger and Salmon (Hamburger and Salmon, Science, 197: 461463, 1977). The bottom layer consisted of 0.2 ml Iscoves' Modified Dulbecco's Medium with 20% fetal calf serum and 0.75% agar. 8×10^3 to 1,6×10^4 cells were added to 0.2 ml of the same culture medium together with 0.4% agar and placed in already coated 24-multiwell dishes. Test substances were applied by continuous exposure (drug overlay) in 0.2 ml medium. Every dish included six control wells containing the vehicle- and drug-treated groups in triplicate at six concentrations.
(§3) Cultures were incubated at 37° and 7% CO2 in a humidified atmosphere for 5 to 15 days (depending on the doubling time of the tumor stem cells) and monitored for colony growth using an inverted microscope. Within this period, in vitro tumor growth led to the formation of colonies with a diameter of ≧50 μm. At the time of maximum colony formation counts were performed with an automatic image analysis system (OMNICOM Fas IV, Biosys GmbH). 24 hours prior to this assay, vital colonies were stained with a sterile aqueous solution of 2-(4-iodophenyl)-3-(4-nitrophenyl)-5-phenyltetrazolium chloride (1 mg/ml, 100 μI/well). Drug effects were expressed in terms of the percentage of surviving cells, obtained by comparison of the mean number of colonies in the treated plates with the mean colony count of the untreated controls (test-versus-control-group value, T/C=colony countTreated Group*100/colony countControl Group).
(§4) Coefficient of variation in the control group ≦50%. IC50 and IC70 values were determined by plotting compound concentration versus cell survival rate. Mean IC50 and IC70 values were calculated according to the formula: [formula]
(§5) with x=specific tumor xenograft and n=total number of tumor xenografts studied. If an IC50 or IC70 value could not be determined within the examined dose range, the lowest or highest concentration studied was used for the calculation.

LXFS 650 = experiment: clonogenic assay (colony forming assay); type: cell-based, human; details: LXFS 650/9; X199AM
Method: as §1, §2, §3, §4, §5

MAXF MCF7X = experiment: clonogenic assay (colony forming assay); type: cell-based, human; details: MAXF MCF7X/28; X218AM
Method: as §1, §2, §3, §4, §5

OVXF 1353 = experiment: clonogenic assay (colony forming assay); type: cell-based, human; details: OVXF 1353/17; X217AM
Method: as §1, §2, §3, §4, §5

OVXF 899 = experiment: clonogenic assay (colony forming assay); type: cell-based, human; details: OVXF 899/33; X185AM
Method: as §1, §2, §3, §4, §5

PRXF PC3M = experiment: clonogenic assay (colony forming assay); type: cell-based, human; details: PRXF PC3M/3; X189/AM
Method: as §1, §2, §3, §4, §5

[1] = oral; cited from earlier work
[2] = cited from earlier work

O=[Se]([O-])[O-].[Na+].[Na+] [sodium selenite]
Test/control (%) at drug concentration [μM] 1. (LXFL 529): 61%
Test/control (%) at drug concentration [μM] 10. (LXFL 529): 9%
Test/control (%) at drug concentration [μM] 100. (LXFL 529): 0%
Test/control (%) at drug concentration [μM] .001 (LXFL 529): 90%
Test/control (%) at drug concentration [μM] .01 (LXFL 529): 78%
Test/control (%) at drug concentration [μM] .1 (LXFL 529): 72%
Test/control (%) class at drug concentration [μM] 1. (LXFL 529): − (− (T/C ≧ 50%))
Test/control (%) class at drug concentration [μM] 10. (LXFL 529): +++ (+++ (T/C ≦ 10%))
Test/control (%) class at drug concentration [μM] 100. (LXFL 529): +++ (+++ (T/C ≦ 10%))
Test/control (%) class at drug concentration [μM] .001 (LXFL 529): − (− (T/C ≧ 50%))
Test/control (%) class at drug concentration [μM] .01 (LXFL 529): − (− (T/C ≧ 50%))
Test/control (%) class at drug concentration [μM] .1 (LXFL 529): − (− (T/C ≧ 50%))
Test/control (%) at drug concentration [μM] 10. (LXFL 529; listed as selenium): < 30%
Test/control (%) at drug concentration [μM] 1. (LXFS 650): 84%
Test/control (%) at drug concentration [μM] 10. (LXFS 650): 109%
Test/control (%) at drug concentration [μM] 100. (LXFS 650): 16%
Test/control (%) at drug concentration [μM] .001 (LXFS 650): 100%
Test/control (%) at drug concentration [μM] .01 (LXFS 650): 100%
Test/control (%) at drug concentration [μM] .1 (LXFS 650): 98%
Test/control (%) class at drug concentration [μM] 1. (LXFS 650): − (− (T/C ≧ 50%))
Test/control (%) class at drug concentration [μM] 10. (LXFS 650): − (− (T/C ≧ 50%))
Test/control (%) class at drug concentration [μM] 100. (LXFS 650): ++ (++ (10% < T/C < 30%))
Test/control (%) class at drug concentration [μM] .001 (LXFS 650): − (− (T/C ≧ 50%))
Test/control (%) class at drug concentration [μM] .01 (LXFS 650): − (− (T/C ≧ 50%))
Test/control (%) class at drug concentration [μM] .1 (LXFS 650): − (− (T/C ≧ 50%))
Test/control (%) at drug concentration [μM] 1. (MAXF MCF7X): 78%
Test/control (%) at drug concentration [μM] 10. (MAXF MCF7X): 97%
Test/control (%) at drug concentration [μM] 100. (MAXF MCF7X): 0%
Test/control (%) at drug concentration [μM] .001 (MAXF MCF7X): 93%
Test/control (%) at drug concentration [μM] .01 (MAXF MCF7X): 85%
Test/control (%) at drug concentration [μM] .1 (MAXF MCF7X): 90%
Test/control (%) class at drug concentration [μM] 1. (MAXF MCF7X): − (− (T/C ≧ 50%))
Test/control (%) class at drug concentration [μM] 10. (MAXF MCF7X): − (− (T/C ≧ 50%))
Test/control (%) class at drug concentration [μM] 100. (MAXF MCF7X): +++ (+++ (T/C ≦ 10%))
Test/control (%) class at drug concentration [μM] .001 (MAXF MCF7X): − (− (T/C ≧ 50%))
Test/control (%) class at drug concentration [μM] .01 (MAXF MCF7X): − (− (T/C ≧ 50%))
Test/control (%) class at drug concentration [μM] .1 (MAXF MCF7X): − (− (T/C ≧ 50%))
Test/control (%) at drug concentration [μM] 1. (OVXF 1353): 90%
Test/control (%) at drug concentration [μM] 10. (OVXF 1353): 100%
Test/control (%) at drug concentration [μM] 100. (OVXF 1353): 0%
Test/control (%) at drug concentration [μM] .001 (OVXF 1353): 96%
Test/control (%) at drug concentration [μM] .01 (OVXF 1353): 91%
Test/control (%) at drug concentration [μM] .1 (OVXF 1353): 100%
Test/control (%) class at drug concentration [μM] 1. (OVXF 1353): − (− (T/C ≧ 50%))
Test/control (%) class at drug concentration [μM] 10. (OVXF 1353): − (− (T/C ≧ 50%))
Test/control (%) class at drug concentration [μM] 100. (OVXF 1353): +++ (+++ (T/C ≦ 10%))
Test/control (%) class at drug concentration [μM] .001 (OVXF 1353): − (− (T/C ≧ 50%))
Test/control (%) class at drug concentration [μM] .01 (OVXF 1353): − (− (T/C ≧ 50%))
Test/control (%) class at drug concentration [μM] .1 (OVXF 1353): − (− (T/C ≧ 50%))
Test/control (%) at drug concentration [μM] 1. (OVXF 899): 70%
Test/control (%) at drug concentration [μM] 10. (OVXF 899): 73%
Test/control (%) at drug concentration [μM] 100. (OVXF 899): 1%
Test/control (%) at drug concentration [μM] .001 (OVXF 899): 80%
Test/control (%) at drug concentration [μM] .01 (OVXF 899): 79%
Test/control (%) at drug concentration [μM] .1 (OVXF 899): 66%
Test/control (%) class at drug concentration [μM] 1. (OVXF 899): − (− (T/C ≧ 50%))
Test/control (%) class at drug concentration [μM] 10. (OVXF 899): − (− (T/C ≧ 50%))
Test/control (%) class at drug concentration [μM] 100. (OVXF 899): +++ (+++ (T/C ≦ 10%))
Test/control (%) class at drug concentration [μM] .001 (OVXF 899): − (− (T/C ≧ 50%))
Test/control (%) class at drug concentration [μM] .01 (OVXF 899): − (− (T/C ≧ 50%))
Test/control (%) class at drug concentration [μM] .1 (OVXF 899): − (− (T/C ≧ 50%))
Test/control (%) at drug concentration [μM] 1. (PRXF PC3M): 85%
Test/control (%) at drug concentration [μM] 10. (PRXF PC3M): 38%
Test/control (%) at drug concentration [μM] 100. (PRXF PC3M): 1%
Test/control (%) at drug concentration [μM] .001 (PRXF PC3M): 91%
Test/control (%) at drug concentration [μM] .01 (PRXF PC3M): 91%
Test/control (%) at drug concentration [μM] .1 (PRXF PC3M): 89%
Test/control (%) class at drug concentration [μM] 1. (PRXF PC3M): − (− (T/C ≧ 50%))
Test/control (%) class at drug concentration [μM] 10. (PRXF PC3M): + (+ (30% ≦ T/C < 50%))
Test/control (%) class at drug concentration [μM] 100. (PRXF PC3M): +++ (+++ (T/C ≦ 10%))
Test/control (%) class at drug concentration [μM] .001 (PRXF PC3M): − (− (T/C ≧ 50%))
Test/control (%) class at drug concentration [μM] .01 (PRXF PC3M): − (− (T/C ≧ 50%))
Test/control (%) class at drug concentration [μM] .1 (PRXF PC3M): − (− (T/C ≧ 50%))
intestinal absorption, sometimes [1]: over 90%
plasma selenium ([2]; 8 hours after 10 mg selenium as sodium selenite): 770 μg/I
plasma selenium ([2]; 16 hours after 10 mg selenium as sodium selenite): 430 μg/I
time until selenium level in plasma again reached its initial value ([2]; after 10 mg selenium as sodium selenite): 24 h
dose from which gastrointestinal toxicity was observed (reversible) ([2]; infusion, tumor patients): about 20 mg selenium
selenium level in plasma ([2]; within 30 minutes after 10 mg selenium as sodium selenite, infused, rose from 200 μg/l): 1200 µg/L
